Assay results published in patent US7705144B2, “Dyes of improved optical brightness and/or fluorescence and compositions containing them” (priority 2007, dated 2010).
Entries after “also recorded” stand apart in the source; their conditions may differ.

Key:
[1] = unmodified precursor dye; cited from earlier work
[2] = Solubility of the dyes in water, mineral oil and organic solvents; type: physicochemical; details: for solubility in organic solvents: which solvents dissolve the dye
[3] = Stability of kaolin pigment powder in oil and in water; type: physicochemical; details: product deposited on kaolin; oil / mineral oil and water
Procedure: A small amount of the product was dissolved in acetone (10 mg in 20 mL), which was slowly added to kaolin (10 g). The solution was heated to 30° C. and the solvent allowed to slowly evaporate with mixing.
A small amount of the product was dissolved in methylene chloride (50 mg in 30 mL), which was slowly added to kaolin (5 g). The suspension was heated to 30° C. and the solvent allowed to slowly evaporate with mixing.

| solubility in acetone, alcohol, and chlorinated solvents [2] | solubility in mineral oil [2] | solubility in water [2] | solubility in organic solvents [2] | SMILES | solubility in water of the precursor dye [1] | further results |
| --- | --- | --- | --- | --- | --- | --- |
|  |  |  |  | O=C1OC2(c3ccc(O)cc3Oc3cc(O)ccc32)c2ccccc21 [fluorescein] | soluble in water |  |
|  |  |  |  | N=C1C=CC(=C(c2ccc(N)cc2)c2ccc(N)cc2)C=C1 [pararosaniline] | water soluble |  |
| dissolves | insoluble | not soluble | soluble only in alcohol or acetone | CC1CCC(Oc2nc(Oc3ccc4c(-c5ccccc5C(=O)O)c5ccc(=O)cc-5oc4c3)nc(OC3CCC(C)CC3C(C)C)n2)C(C(C)C)C1 (stereo not shown) [Compound IV] |  |  |
|  |  |  |  | Cc1cc2nc3ccc(N(C)C)cc3[s+]c2cc1N.[Cl-] [toluidine blue O] | water soluble |  |
| show solubility | insoluble | insoluble |  | CCCCCCCCOc1nc(Nc2cc3sc4cc(=[N+](C)C)ccc-4nc3cc2C)nc(N(c2ccccc2)c2ccccc2)n1 [Compound I] |  | stability of the resulting powder in oil and in water [3]: stable in oil and in water; solubility in methanol ([2]; methanol): soluble |
|  |  |  | soluble only in alcohol or acetone | CC1CCC(Oc2nc(Nc3ccc(CO)cc3)nc(OC3CCC(C)CC3C(C)C)n2)C(C(C)C)C1 (stereo not shown) [Compound III] |  | stability of the resulting powder in oil and in water [3]: stable in water and in mineral oil |

| SMILES | solubility in acetone, alcohol, and chlorinated solvents [2] | solubility in mineral oil [2] | solubility in water [2] | solubility in organic solvents [2] | solubility in water of the precursor dye [1] | further results |
| --- | --- | --- | --- | --- | --- | --- |
| C=Cc1ccc(Nc2nc(OCCCCCCCC)nc(Oc3ccc(C(c4ccccc4)(c4ccccc4)c4ccccc4)cc3)n2)cc1 [Compound II] | show solubility | insoluble | insoluble | solubility only to dichloromethane and toluene; also recorded: only soluble in boiling toluene or dichloromethane |  | solubility in organic solvents ([2]; listed as Example 2): insoluble to common organic solvents, except for hot dichloromethane and toluene |
